Measurements reported in patent US20050222247A1, “Chroman derivatives” (Bayer HealthCare AG, priority 2003, published 2005).
Counter-ions that a name gives are not always drawn.

Tests used:
β3-adrenoceptor [1] = target: T1, β3-adrenoceptor (Homo sapiens, UniProt P13945); assay: Measurement of cAMP production in SK-N-MC cells (Assay 1 - Method A); format: cell-based; settings: 1 μM CGP20712A, read-out: Beta-3 EC50
T1 construct: which endogenously express β1- and β3-adrenoceptors; endogenous in cells; host or cells: SK-N-MC human neuroblastoma cells
T1 sequence (P13945 whole entry): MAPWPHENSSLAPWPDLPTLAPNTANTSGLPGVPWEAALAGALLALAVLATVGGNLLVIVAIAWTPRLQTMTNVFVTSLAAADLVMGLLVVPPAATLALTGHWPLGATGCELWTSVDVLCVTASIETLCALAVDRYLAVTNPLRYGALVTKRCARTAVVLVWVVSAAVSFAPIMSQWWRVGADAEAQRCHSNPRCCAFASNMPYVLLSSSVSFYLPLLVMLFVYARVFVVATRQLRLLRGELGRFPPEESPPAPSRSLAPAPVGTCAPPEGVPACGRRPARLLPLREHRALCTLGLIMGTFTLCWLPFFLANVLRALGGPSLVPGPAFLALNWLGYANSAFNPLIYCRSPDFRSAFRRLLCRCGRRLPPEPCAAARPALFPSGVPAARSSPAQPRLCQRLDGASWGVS
Protocol: Measurement of cAMP Production in SK-N-MC Cells (Assay 1—Method A)
Human neuroblastoma cell line, SK-N-MC, which endogenously express β1- and β3-adrenoceptors was utilized. In the presence of 1 μM of […] selective antagonist, CGP20712A, the effects of the compounds on cAMP levels were examined. SK-N-MC cells were suspended in Hank's balanced salt solution containing 20 mM Hepes, 0.1% BSA, 1 mM L-ascorbic acid sodium salt, 250 nM IBMX, and 1 μM CGP20712A (pH 7.4). After incubating at 37° C. for 30 min, the compound of the present invention was added and cells were further incubated for 30 min. Total cAMP in the well was measured by cAMP ELISA kit (Tropix, Bedford, Mass.). Effect of the compound on the cAMP level was determined at 6 different concentrations from 0.1 nM to 10 μM. The concentration to induce 50% of maximum response, 50% effective concentration (EC50), was calculated. In addition, intrinsic activity (IA) was determined as a maximum response induced by each compound, and IA was expressed as relative value compared with a response induced by 10 μM isoproterenol (i.e. cAMP level increased by 10 μM isoproterenol was taken as 100%).

β3-adrenoceptor [2] = target: T1, β3-adrenoceptor; assay: Measurement of cAMP production in SK-N-MC cells (Assay 1 - Method B); format: cell-based; settings: 1 μM Atenolol, read-out: Beta-3 EC50
Protocol: Measurement of cAMP production in SK-N-MC Cells (Assay 1—Method B)
Human neuroblastoma cell line, SK-N-MC, which endogenously express […] were utilized. In the presence or absence of 1 μM of β1-adrenoceptor selective antagonist, Atenolol, the effects of the compounds on cAMP levels were examined. SK-N-MC cells were suspended in Hank's balanced salt solution containing 20 mM Hepes, 0.1% BSA, 1 mM L-ascorbic acid sodium salt, 250 nM IBMX, and 1 μM Atenolol (pH 7.4). After incubating at 37° C. for 1 h, the compound of the present invention was added and cells were further incubated for 30 min. Total cAMP in the well was measured by cAMP ELISA kit (Tropix, Bedford, Mass.). Effect of the compound on the cAMP level was determined at 8 different concentrations from 1 pM to 10 μM. The concentration to induce 50% of maximum response, 50% effective concentration (EC50), was calculated.

human β1-adrenoceptor [3] = target: T2, human β1-adrenoceptor (Homo sapiens, UniProt P08588); assay: Agonistic activity, calcium influx in CHO cells (Assay 2 - Method B); format: cell-based; settings: agonist, CHO cells expressing recombinant human β1-adrenoceptor, read-out: Beta-1 EC50
T2 construct: expressed in transfected cells; host or cells: Chinese hamster ovary (CHO) cells
T2 sequence (P08588 whole entry): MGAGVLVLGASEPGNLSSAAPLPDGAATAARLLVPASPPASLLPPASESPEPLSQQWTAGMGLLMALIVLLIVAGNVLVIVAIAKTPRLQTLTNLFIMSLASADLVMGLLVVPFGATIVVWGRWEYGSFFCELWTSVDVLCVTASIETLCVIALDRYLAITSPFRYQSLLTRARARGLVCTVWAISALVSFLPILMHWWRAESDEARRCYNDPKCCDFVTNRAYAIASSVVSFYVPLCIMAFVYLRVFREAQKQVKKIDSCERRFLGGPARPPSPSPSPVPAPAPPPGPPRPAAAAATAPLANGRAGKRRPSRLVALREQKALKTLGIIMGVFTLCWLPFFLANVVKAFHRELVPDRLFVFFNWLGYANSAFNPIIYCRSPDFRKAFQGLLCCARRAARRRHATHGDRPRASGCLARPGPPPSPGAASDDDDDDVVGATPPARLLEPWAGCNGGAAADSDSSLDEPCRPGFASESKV
Excerpt: (§1) Measurement of Agonistic Activity for Human β1-Adrenoceptor or Human β2-Adrenoceptor (Assay 2—Method B)
(§2) The agonistic activity of the compound to human β2-adrenoceptor was examined by measurement of calcium influx in Chinese hamster ovary (CHO) cells, in which recombinant human β2-adrenoceptor was expressed (hβ2-CHO cells). The cells were cultivated in DMEM F12 medium. Prior to measurement, the cells were loaded with Coelenterazine (1:2000) in Ca-Tyrode. The Ca-influx was directly measured for 45 sec (Hamamatsu FluoroBox fluorescence detector). The effect of the compound on calcium influx was determined at 8 different concentrations from 1 pM to 10 μM. The concentration to induce 50% of maximum response, 50% effective concentration (EC50), was calculated. Experiments with the same methods were performed in CHO cells expressing recombinant human β1-adrenoceptor to examine the effects of the compounds on human β1-adrenoceptor.

human β2-adrenoceptor [4] = target: T3, human β2-adrenoceptor (Homo sapiens, UniProt P07550); assay: as above; format: cell-based; settings: agonist, hβ2-CHO cells, read-out: Beta-2 EC50
T3 construct: expressed in transfected cells; host or cells: Chinese hamster ovary (CHO) cells (hβ2-CHO)
T3 sequence (P07550 whole entry): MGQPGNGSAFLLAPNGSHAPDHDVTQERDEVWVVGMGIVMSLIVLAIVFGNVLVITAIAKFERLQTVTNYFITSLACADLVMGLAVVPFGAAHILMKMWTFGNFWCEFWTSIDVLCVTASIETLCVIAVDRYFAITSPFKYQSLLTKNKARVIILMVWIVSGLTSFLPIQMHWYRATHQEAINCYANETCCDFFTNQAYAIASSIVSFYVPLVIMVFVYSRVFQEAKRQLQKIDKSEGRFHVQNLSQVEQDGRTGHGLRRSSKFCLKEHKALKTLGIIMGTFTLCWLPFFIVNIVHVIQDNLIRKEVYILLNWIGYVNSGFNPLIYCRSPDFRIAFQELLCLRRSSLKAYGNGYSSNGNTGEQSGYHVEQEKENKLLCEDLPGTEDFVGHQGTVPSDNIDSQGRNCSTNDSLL
Excerpt: as §1, §2

human β1-adrenoceptor [5] = target: T2, human β1-adrenoceptor; assay: Agonistic activity, cAMP levels in CHO cells (Assay 2 - Method A); format: cell-based; settings: agonist, CHO cells expressing recombinant human β1-adrenoceptor, read-out: Beta-1 EC50
Protocol: (§3) Measurement of Agonistic Activity for Human β1-Adrenoceptor Or Human β2-Adrenoceptor (Assay 2—Method A)
(§4) The agonistic activity of the compound to human […] was examined by measurement of cAMP levels in Chinese hamster ovary (CHO) cells, in which recombinant human […] was expressed (hβ2-CHO cells). The hβ2-CHO cells were suspended in Hank's balanced salt solution containing 20 mM Hepes, 0.1% BSA, 1 mM L-ascorbic acid sodium salt, and 250 nM IBMX (pH 7.4). After incubating at 37° C. for 30 min, the compound of the present invention was added and cells were further incubated for 30 min. Total cAMP in the well was measured by cAMP ELISA kit (Tropix, Bedford, Mass.). The effect of the compound on the cAMP level was determined at 6 different concentrations from 0.1 nM to 10 μM. The concentration to induce 50% of maximum response, 50% effective concentration (EC50), was calculated. In addition, intrinsic activity (IA) was determined as a maximum response induced by each compound, and IA was expressed as relative value compared with a response induced by 10 μM isoproterenol (i.e. cAMP level increased by 10 μM isoproterenol was taken as 100%). Experiments with the same methods were performed in CHO cells expressing recombinant human β1-adrenoceptor to examine the effects of the compounds on human β1-adrenoceptor.

human β2-adrenoceptor [6] = target: T3, human β2-adrenoceptor; assay: as above; format: cell-based; settings: agonist, hβ2-CHO cells, read-out: Beta-2 EC50
Protocol: as §3, §4

human β1-adrenoceptor [7] = target: T2, human β1-adrenoceptor; assay: Antagonistic activity, isoproterenol-induced cAMP production in CHO cells (Assay 3); format: cell-based; settings: antagonist; inhibition of cAMP production induced by 100 nM isoproterenol, CHO cells expressing human β1-adrenoceptor; read-out: Beta-1 IC50
Protocol: (§5) Measurement of Antagonistic Activity for Human […] (Assay 3)
(§6) The antagonistic activity of the compound to human β2-adrenoceptor was examined by measurement of cAMP levels in the hβ2-CHO cells stimulated by isoproterenol. The hβ2-CHO cells were suspended in Hank's balanced salt solution containing 20 mM Hepes, 0.1% BSA, 1 mM L-ascorbic acid sodium salt, and 250 nM IBMX (pH 7.4). The cells were stimulated by non-selective β-adrenoceptor agonist isoproterenol at 100 nM to increase cAMP levels. After incubating at 37° C. for 30 min, the compound of the present invention was added and cells were further incubated for 30 min. Total cAMP in the well was measured by cAMP ELISA kit (Tropix, Bedford, Mass.). Inhibitory effect of the compound on the isoproterenol-induced cAMP production was determined at 6 different concentrations from 0.1 nM to 10 μM. The concentration to induce 50% of inhibitory response, 50% inhibitory concentration (IC50), was calculated. Experiments with the same methods were performed in CHO cells expressing recombinant human β1-adrenoceptor to examine the effects of the compounds on human β1-adrenoceptor.

human β2-adrenoceptor [8] = target: T3, human β2-adrenoceptor; assay: as above; format: cell-based; settings: antagonist; inhibition of cAMP production induced by 100 nM isoproterenol, hβ2-CHO cells; read-out: Beta-2 IC50
Protocol: as §5, §6

| Structure (SMILES) | EC50 (β3-adrenoceptor [1]) [nM] | melting point [°C] | further results |
| --- | --- | --- | --- |
| CN(c1ccc(C(=O)O)cc1)c1ccc2c(c1)CC[C@H](CNC[C@H](O)COc1ccccc1)O2 [Example 2, 4-[[(2R)-2-({[(2S)-2-hydroxy-3-phenoxypropyl]amino}methyl)-3,4-dihydro-2H-chromen-6-yl](methyl)amino]benzoic acid hydrochloride] | 14 | – | – |
| O=C(O)c1cccc(Nc2ccc3c(c2)CC[C@H](CNC[C@H](O)COc2ccccc2)O3)c1 [Example 11] | – | – | EC50 (β3-adrenoceptor [2]): 186 nM |
| COc1cc(C(=O)O)ccc1Oc1ccc2c(c1)CC[C@H](CNC[C@H](O)COc1ccccc1)O2 [Example 12] | 270 | – | – |
| COc1cc(Oc2ccc3c(c2)CC[C@H](CNC[C@H](O)COc2ccccc2)O3)c(C(=O)O)cc1OC [Example 54] | – | – | EC50 (human β1-adrenoceptor [3]): 8000 nM; EC50 (human β2-adrenoceptor [4]): > 10000 nM |
| O=C(O)c1ccccc1Oc1ccc2c(c1)CC[C@H](CNC[C@H](O)COc1ccccc1)O2 [Example 1, 2-{[(2R)-2-({[(2S)-2-hydroxy-3-phenoxypropyl]amino}methyl)-3,4-dihydro-2H-chromen-6-yl]oxy}benzoic Acid] | 26 | – | EC50 (human β1-adrenoceptor [5]): > 10000 nM; EC50 (human β2-adrenoceptor [6]): > 10000 nM; IC50 (human β1-adrenoceptor [7]): > 10000 nM; IC50 (human β2-adrenoceptor [8]): 930 nM |
| O=C(O)c1cc(F)ccc1Oc1ccc2c(c1)CC[C@H](CNC[C@H](O)COc1ccccc1)O2 [Example 44, 5-fluoro-2-{[(2R)-2-({[(2S)-2-hydroxy-3-phenoxypropyl]amino}methyl)-3,4-dihydro-2H-chromen-6-yl]oxy}benzoic Acid Hydrochloride] | – | – | EC50 (β3-adrenoceptor [2]): 23 nM; EC50 (human β1-adrenoceptor [3]): > 10000 nM; EC50 (human β2-adrenoceptor [4]): > 10000 nM |
| N#Cc1ccc(Nc2ccc3c(c2)CC[C@H](CNC[C@H](O)COc2ccccc2)O3)cc1 [Example 29] | 160 | – | – |
| O=C(O)c1ccccc1Oc1ccc2c(c1)CC[C@H](CNC[C@H](O)COc1ccccc1F)O2 [Example 36] | – | 209 | – |
| CC(C)(C)c1cc(C(=O)O)ccc1Oc1ccc2c(c1)CC[C@H](CNC[C@H](O)COc1ccccc1)O2 [Example 23] | – | – | EC50 (human β2-adrenoceptor [6]): > 10000 nM |
| O=C(O)c1ccccc1Oc1ccc2c(c1)CC[C@H](CNC[C@H](O)COc1ccccc1-c1ccccc1)O2 [Example 37] | 230 | 175 | – |

The next lines start with results.

| EC50 (β3-adrenoceptor [1]) [nM] | melting point [°C] | Structure (SMILES) | further results |
| --- | --- | --- | --- |
| – | 196 to 198 | O=C(O)c1ccccc1Oc1ccc2c(c1)CC[C@H](CNC[C@H](O)COc1c(F)cccc1F)O2 [Example 41] | – |
| – | 230 | O=C(O)c1ccccc1Oc1ccc2c(c1)CC[C@H](CNC[C@H](O)COc1ccccc1Cl)O2 [Example 39] | – |
| – | 196 to 199 | O=C(O)c1ccccc1Oc1ccc2c(c1)CC[C@H](CNC[C@H](O)COc1ccc(F)c(Cl)c1)O2 [Example 43] | – |
| – | 162 | O=C(O)c1ccccc1Oc1ccc2c(c1)CC[C@H](CNC[C@H](O)COc1ccccc1C(F)(F)F)O2 [Example 38] | – |
| – | 173 to 176 | O=C(O)c1ccccc1Oc1ccc2c(c1)CC[C@H](CNC[C@H](O)COc1ccccc1N1CCOCC1)O2 [Example 42] | – |
| – | 138 to 142 | O=C(O)c1ccccc1Oc1ccc2c(c1)CC[C@H](CNC[C@H](O)COc1ccc(F)cc1F)O2 [Example 40] | – |
